In assay [1] the target is T1, Cytoplasmic tyrosine-protein kinase BMX (Homo sapiens) (UniProt P51813).
T1 sequence (whole entry): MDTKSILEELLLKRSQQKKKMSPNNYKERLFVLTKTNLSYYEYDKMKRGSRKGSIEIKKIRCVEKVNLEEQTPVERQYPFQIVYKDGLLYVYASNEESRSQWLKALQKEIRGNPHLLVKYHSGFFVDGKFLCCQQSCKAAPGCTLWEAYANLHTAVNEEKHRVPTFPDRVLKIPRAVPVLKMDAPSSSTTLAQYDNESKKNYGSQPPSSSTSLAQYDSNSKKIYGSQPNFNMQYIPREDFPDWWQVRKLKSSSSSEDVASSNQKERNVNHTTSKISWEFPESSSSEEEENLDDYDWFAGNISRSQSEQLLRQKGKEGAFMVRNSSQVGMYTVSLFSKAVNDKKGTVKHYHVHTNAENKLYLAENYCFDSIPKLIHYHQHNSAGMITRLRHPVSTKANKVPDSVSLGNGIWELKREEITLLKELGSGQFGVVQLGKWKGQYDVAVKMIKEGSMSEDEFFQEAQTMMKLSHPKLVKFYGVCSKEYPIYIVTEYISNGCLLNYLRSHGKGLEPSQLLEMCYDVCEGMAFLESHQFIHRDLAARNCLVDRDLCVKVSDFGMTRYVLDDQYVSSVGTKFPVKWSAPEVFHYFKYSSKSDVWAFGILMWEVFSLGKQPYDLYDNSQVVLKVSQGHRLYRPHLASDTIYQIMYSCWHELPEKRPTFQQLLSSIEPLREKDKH
Kind of assay: Inhibition of human recombinant BMX at 40 nM related to control ULK1.

Assay [2] concerns the target T2, Tyrosine-protein kinase JAK3 (Homo sapiens) (UniProt P52333).
T2 sequence (whole entry): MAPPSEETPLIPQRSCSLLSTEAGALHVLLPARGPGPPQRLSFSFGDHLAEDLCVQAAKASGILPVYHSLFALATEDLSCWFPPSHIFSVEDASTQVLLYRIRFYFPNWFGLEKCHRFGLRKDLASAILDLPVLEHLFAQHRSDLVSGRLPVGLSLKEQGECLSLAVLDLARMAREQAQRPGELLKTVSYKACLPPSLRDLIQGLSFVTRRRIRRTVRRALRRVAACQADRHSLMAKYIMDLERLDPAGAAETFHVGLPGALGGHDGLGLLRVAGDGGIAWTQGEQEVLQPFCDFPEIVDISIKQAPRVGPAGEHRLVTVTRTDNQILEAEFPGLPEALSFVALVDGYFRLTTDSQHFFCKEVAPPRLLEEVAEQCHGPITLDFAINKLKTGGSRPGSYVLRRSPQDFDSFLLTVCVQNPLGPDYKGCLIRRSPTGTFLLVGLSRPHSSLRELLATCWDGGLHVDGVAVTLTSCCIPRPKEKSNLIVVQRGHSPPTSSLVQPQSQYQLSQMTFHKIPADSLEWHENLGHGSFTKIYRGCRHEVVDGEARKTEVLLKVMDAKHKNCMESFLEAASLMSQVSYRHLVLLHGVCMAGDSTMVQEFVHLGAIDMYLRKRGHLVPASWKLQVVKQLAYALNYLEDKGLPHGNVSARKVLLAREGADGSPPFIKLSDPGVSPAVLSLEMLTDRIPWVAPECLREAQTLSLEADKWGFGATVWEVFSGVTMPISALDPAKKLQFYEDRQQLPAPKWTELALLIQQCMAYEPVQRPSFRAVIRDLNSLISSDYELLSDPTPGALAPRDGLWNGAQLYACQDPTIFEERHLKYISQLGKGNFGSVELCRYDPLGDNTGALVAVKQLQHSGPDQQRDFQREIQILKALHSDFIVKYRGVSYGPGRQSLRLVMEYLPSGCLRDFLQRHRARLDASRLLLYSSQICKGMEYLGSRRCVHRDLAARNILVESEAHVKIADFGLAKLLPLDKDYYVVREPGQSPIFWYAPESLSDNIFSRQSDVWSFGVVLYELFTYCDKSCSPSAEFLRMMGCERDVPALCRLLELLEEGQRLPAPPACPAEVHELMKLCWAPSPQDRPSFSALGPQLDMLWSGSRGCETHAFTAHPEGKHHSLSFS
The experiment in a line: Inhibition of human recombinant JAK3 at 500 nM in presence of ATP by radiometric assay relative to control.

The target in assay [3] is MAP kinase-activated protein kinase 2 (Homo sapiens) (UniProt P49137). Kind of assay: Inhibition of human recombinant MAPKAPK2 at 500 nM in presence of ATP by radiometric assay relative to control.
Sequence of MAP kinase-activated protein kinase 2 (Homo sapiens) (P49137 whole entry, looked up): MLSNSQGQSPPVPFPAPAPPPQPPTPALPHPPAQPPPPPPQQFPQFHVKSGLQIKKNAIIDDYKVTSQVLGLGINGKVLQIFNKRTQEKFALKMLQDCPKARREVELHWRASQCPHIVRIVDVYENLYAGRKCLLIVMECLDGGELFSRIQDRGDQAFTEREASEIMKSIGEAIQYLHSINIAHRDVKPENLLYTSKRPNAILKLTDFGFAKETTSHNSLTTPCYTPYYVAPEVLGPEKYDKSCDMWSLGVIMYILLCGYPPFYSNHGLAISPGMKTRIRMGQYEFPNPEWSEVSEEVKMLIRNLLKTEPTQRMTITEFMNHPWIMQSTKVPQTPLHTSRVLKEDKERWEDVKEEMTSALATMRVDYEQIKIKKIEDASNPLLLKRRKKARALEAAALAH
Assay [4] addresses Proto-oncogene tyrosine-protein kinase receptor Ret (Homo sapiens) (UniProt P07949). Kind of assay: Inhibition of human recombinant RET at 500 nM in presence of ATP by radiometric assay relative to control.
Assay [5] has as its target MAP kinase-interacting serine/threonine-protein kinase 2 (Homo sapiens, UniProt Q9HBH9). Kind of assay: Inhibition of human recombinant MNK2 at 500 nM related to control ULK1.

The source of these data is ChEMBL document CHEMBL5653631, “A Potent and Selective ULK1 Inhibitor Suppresses Autophagy and Sensitizes Cancer Cells to Nutrient Stress” (iScience, 2018).

What is called inhibition is the percentage by which the read-out fell short of the control.

Sequence of MAP kinase-interacting serine/threonine-protein kinase 2 (Q9HBH9 whole entry, looked up): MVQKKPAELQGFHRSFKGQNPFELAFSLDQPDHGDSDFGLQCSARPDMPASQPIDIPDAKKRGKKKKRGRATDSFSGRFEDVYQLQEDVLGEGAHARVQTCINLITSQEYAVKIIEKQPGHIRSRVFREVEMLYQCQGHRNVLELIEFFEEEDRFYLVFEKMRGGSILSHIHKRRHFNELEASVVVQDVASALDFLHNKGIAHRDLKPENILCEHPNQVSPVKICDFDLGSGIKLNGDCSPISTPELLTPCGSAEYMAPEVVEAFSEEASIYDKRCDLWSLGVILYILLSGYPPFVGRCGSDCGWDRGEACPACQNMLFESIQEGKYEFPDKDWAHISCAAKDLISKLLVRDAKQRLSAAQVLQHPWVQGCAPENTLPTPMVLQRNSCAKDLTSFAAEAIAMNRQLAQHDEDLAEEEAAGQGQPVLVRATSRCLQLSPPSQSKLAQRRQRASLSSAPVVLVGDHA
Sequence of Proto-oncogene tyrosine-protein kinase receptor Ret (Homo sapiens) (P07949 whole entry): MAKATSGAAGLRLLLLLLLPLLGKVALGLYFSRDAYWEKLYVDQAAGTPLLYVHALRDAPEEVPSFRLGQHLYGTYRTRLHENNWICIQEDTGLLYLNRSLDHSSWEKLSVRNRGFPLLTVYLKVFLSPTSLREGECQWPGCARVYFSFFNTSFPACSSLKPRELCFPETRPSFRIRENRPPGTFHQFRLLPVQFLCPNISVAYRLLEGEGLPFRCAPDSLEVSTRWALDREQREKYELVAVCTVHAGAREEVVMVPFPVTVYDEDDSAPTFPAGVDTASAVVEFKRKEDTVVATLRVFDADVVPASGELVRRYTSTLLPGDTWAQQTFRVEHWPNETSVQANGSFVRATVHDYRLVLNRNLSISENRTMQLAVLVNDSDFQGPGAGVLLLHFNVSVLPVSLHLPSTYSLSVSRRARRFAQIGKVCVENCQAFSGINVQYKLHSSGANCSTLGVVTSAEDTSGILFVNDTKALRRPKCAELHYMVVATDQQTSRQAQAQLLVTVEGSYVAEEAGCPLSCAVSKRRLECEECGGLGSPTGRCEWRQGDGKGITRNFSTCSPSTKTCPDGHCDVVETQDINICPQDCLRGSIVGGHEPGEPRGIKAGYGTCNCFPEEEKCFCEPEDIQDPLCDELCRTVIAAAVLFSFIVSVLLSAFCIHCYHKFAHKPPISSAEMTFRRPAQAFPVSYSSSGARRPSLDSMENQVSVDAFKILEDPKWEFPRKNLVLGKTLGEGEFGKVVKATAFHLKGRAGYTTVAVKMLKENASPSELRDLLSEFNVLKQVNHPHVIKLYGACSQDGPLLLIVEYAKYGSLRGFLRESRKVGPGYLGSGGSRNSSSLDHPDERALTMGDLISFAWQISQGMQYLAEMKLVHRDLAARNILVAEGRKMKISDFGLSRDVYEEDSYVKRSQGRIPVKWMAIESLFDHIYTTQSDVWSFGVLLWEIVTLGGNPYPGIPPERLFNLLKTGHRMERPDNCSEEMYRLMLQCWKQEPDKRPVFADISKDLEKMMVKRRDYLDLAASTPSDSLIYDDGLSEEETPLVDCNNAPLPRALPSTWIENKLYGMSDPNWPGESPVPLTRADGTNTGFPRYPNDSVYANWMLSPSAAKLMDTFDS

As to `O=C(N[C@@H](C1CC1)C(F)(F)F)c1cc(-c2cnn3cc(-c4ccc(F)cc4)cnc23)cs1`, the fold change (FC) in assay [1] came out at 0.05.
For the compound `CNC(=O)c1ccccc1Oc1nc(Nc2cc(OC)c(OC)c(OC)c2)ncc1Br`, the results for the inhibition in assay [2], in assay [3] and in assay [4] were 21%, 0% and 3%, respectively. The fold change (FC) in assay [5] turned out to be 0.03.
